Measurements taken from ChEMBL document CHEMBL1134861, “Improving metabolic stability of phosphodiesterase-4 inhibitors containing a substituted catechol: prevention of reactive intermediate formation and covalent binding” (Bioorg Med Chem Lett, 2002).

Organism: Rattus norvegicus
Experiment: In vitro metabolism of radiolabeled compound at 10 uM was performed in rat microsomal protein containing a NADPH-regenerating system for 1 hr at 37 degree C
Format: functional

Row | Covalent binding [%] | Covalent binding (tested as the 3H-labelled form) [%] | Compound
1 | < 0.05 |  | Cc1cncc(C)c1CC(c1ccc(C(O)(C(F)(F)F)C(F)(F)F)cc1)c1ccc(OCF)c(OC(F)F)c1 (stereo not given)
2 | 0.45 |  | Cc1cncc(C)c1CC(c1ccc(C(O)(C(F)(F)F)C(F)(F)F)cc1)c1ccc(OCF)c(OC2CCC2)c1 (stereo not given)
3 | 2.9 |  | COc1ccc(C(Cc2c(C)cncc2C)c2ccc(C(O)(C(F)(F)F)C(F)(F)F)cc2)cc1OC1CCCC1 (stereo not given)
4 |  | 3.1 | COc1ccc([C@H](Cc2ccncc2)c2ccc(C(O)(C(F)(F)F)C(F)(F)F)cc2)cc1OC1CCCC1
5 | < 0.05 |  | [O-][n+]1ccc(CC(c2ccc(C(O)(C(F)(F)F)C(F)(F)F)cc2)c2ccc(OC(F)F)c(OC(F)F)c2)cc1 (stereo not given)
